{"source": "patent US6777425B2", "about": "“Isoquinoline compounds having antiinfective activity” (Genesoft Pharmaceuticals, Inc., priority 2001, dated 2004)", "key": {"S. aureus ATCC 13709": {"system": "S. aureus ATCC 13709", "assay": "NCCLS broth microdilution MIC, S. aureus (MSSA)", "format": "cell-based, Staphylococcus aureus", "conditions": "organism E = S. aureus ATCC 13709 (MSSA)", "source_text": "(§1) Compounds according to this invention were screened for their in vitro activities against selected species of bacteria and fungi. […]"}, "C. albicans ATCC 38247": {"system": "C. albicans ATCC 38247", "assay": "Antifungal MIC, C. albicans", "format": "cell-based, Candida albicans", "conditions": "organism B = C. albicans ATCC 38247", "source_text": "as §1"}, "S. pneumoniae ATCC 51422": {"system": "S. pneumoniae ATCC 51422", "assay": "NCCLS broth microdilution MIC, S. pneumoniae (PRSP)", "format": "cell-based, Streptococcus pneumoniae", "conditions": "organism I = S. pneumoniae ATCC 51422 (PRSP)", "source_text": "as §1"}, "E. faecalis ATCC 29212": {"system": "E. faecalis ATCC 29212", "assay": "NCCLS broth microdilution MIC, E. faecalis", "format": "cell-based", "conditions": "organism C = E. faecalis ATCC 29212", "source_text": "as §1"}, "S. pneumoniae ATCC 49619": {"system": "S. pneumoniae ATCC 49619", "assay": "NCCLS broth microdilution MIC, S. pneumoniae ATCC 49619", "format": "cell-based, Streptococcus pneumoniae", "conditions": "organism H = S. pneumoniae ATCC 49619", "source_text": "as §1"}, "S. aureus ATCC 27660": {"system": "S. aureus ATCC 27660", "assay": "NCCLS broth microdilution MIC, S. aureus (MRSA)", "format": "cell-based, Staphylococcus aureus", "conditions": "organism F = S. aureus ATCC 27660 (MRSA)", "source_text": "as §1"}, "B. cereus ATCC 11778": {"system": "B. cereus ATCC 11778", "assay": "NCCLS broth microdilution MIC, B. cereus", "format": "cell-based, Bacillus cereus", "conditions": "organism A = B. cereus ATCC 11778", "source_text": "as §1"}, "[1]": {"system": "S. epidermidis ATCC 12228", "assay": "NCCLS broth microdilution MIC, S. epidermidis", "format": "cell-based, Staphylococcus epidermidis", "conditions": "organism G = S. epidermidis ATCC 12228", "source_text": "as §1"}, "E. faecium ATCC 51559": {"system": "E. faecium ATCC 51559", "assay": "NCCLS broth microdilution MIC, E. faecium (VRE)", "format": "cell-based, Enterococcus faecium", "conditions": "organism D = E. faecium ATCC 51559 (VRE)", "source_text": "as §1"}}, "data": [{"molecule": "Cn1cc(NC(=O)c2ccc(NC(=O)c3cc(NC(=O)c4cc5ccccc5cn4)cn3C)cc2)cc1C(=O)NCCc1ccccn1", "note": "[Ic-12]", "values": [{"measurement": "Minimum Inhibitory Concentration (MIC)", "setting": "S. aureus ATCC 13709", "value": "+++ (+++ = MIC ≦ 4)"}, {"measurement": "Minimum Inhibitory Concentration (MIC)", "setting": "C. albicans ATCC 38247", "value": ">32", "unit": "µg/mL"}, {"measurement": "Minimum Inhibitory Concentration (MIC)", "setting": "S. pneumoniae ATCC 51422", "value": "+++ (+++ = MIC ≦ 4)"}, {"measurement": "Minimum Inhibitory Concentration (MIC)", "setting": "E. faecalis ATCC 29212", "value": "+++ (+++ = MIC ≦ 4)"}, {"measurement": "Minimum Inhibitory Concentration (MIC)", "setting": "S. pneumoniae ATCC 49619", "value": "+++ (+++ = MIC ≦ 4)"}, {"measurement": "Minimum Inhibitory Concentration (MIC)", "setting": "S. aureus ATCC 27660", "value": "+++ (+++ = MIC ≦ 4)"}, {"measurement": "Minimum Inhibitory Concentration (MIC)", "setting": "B. cereus ATCC 11778", "value": ">32", "unit": "µg/mL"}, {"measurement": "Minimum Inhibitory Concentration (MIC)", "setting": "[1]", "value": "+++ (+++ = MIC ≦ 4)"}, {"measurement": "Minimum Inhibitory Concentration (MIC)", "setting": "E. faecium ATCC 51559", "value": "+++ (+++ = MIC ≦ 4)"}]}, {"molecule": "Cn1cc(NC(=O)c2cc(NC(=O)c3cc(NC(=O)c4cc5ccccc5cn4)cn3C)c[nH]2)cc1C(=O)NCCN1CCC(F)CC1", "note": "[Ib-85]", "values": [{"measurement": "Minimum Inhibitory Concentration (MIC)", "setting": "S. aureus ATCC 13709", "value": "+++ (+++ = MIC ≦ 4)"}, {"measurement": "Minimum Inhibitory Concentration (MIC)", "setting": "C. albicans ATCC 38247", "value": "+ (+ = 12 ≦ MIC ≦ 32)"}, {"measurement": "Minimum Inhibitory Concentration (MIC)", "setting": "S. pneumoniae ATCC 51422", "value": "+++ (+++ = MIC ≦ 4)"}, {"measurement": "Minimum Inhibitory Concentration (MIC)", "setting": "E. faecalis ATCC 29212", "value": "+++ (+++ = MIC ≦ 4)"}, {"measurement": "Minimum Inhibitory Concentration (MIC)", "setting": "S. pneumoniae ATCC 49619", "value": "+++ (+++ = MIC ≦ 4)"}, {"measurement": "Minimum Inhibitory Concentration (MIC)", "setting": "S. aureus ATCC 27660", "value": "+++ (+++ = MIC ≦ 4)"}, {"measurement": "Minimum Inhibitory Concentration (MIC)", "setting": "B. cereus ATCC 11778", "value": "+++ (+++ = MIC ≦ 4)"}, {"measurement": "Minimum Inhibitory Concentration (MIC)", "setting": "[1]", "value": "+++ (+++ = MIC ≦ 4)"}, {"measurement": "Minimum Inhibitory Concentration (MIC)", "setting": "E. faecium ATCC 51559", "value": "+++ (+++ = MIC ≦ 4)"}]}, {"molecule": "Cn1cc(NC(=O)c2cc(NC(=O)c3cc(NC(=O)c4cc5ccccc5cn4)cs3)cn2C)cc1C(=O)NCCN1CCOCC1", "note": "[Ib-51]", "values": [{"measurement": "Minimum Inhibitory Concentration (MIC)", "setting": "S. aureus ATCC 13709", "value": "+++ (+++ = MIC ≦ 4)"}, {"measurement": "Minimum Inhibitory Concentration (MIC)", "setting": "C. albicans ATCC 38247", "value": "++ (++ = 4 < MIC < 12)"}, {"measurement": "Minimum Inhibitory Concentration (MIC)", "setting": "S. pneumoniae ATCC 51422", "value": "+ (+ = 12 ≦ MIC ≦ 32)"}, {"measurement": "Minimum Inhibitory Concentration (MIC)", "setting": "E. faecalis ATCC 29212", "value": "+++ (+++ = MIC ≦ 4)"}, {"measurement": "Minimum Inhibitory Concentration (MIC)", "setting": "S. pneumoniae ATCC 49619", "value": "+++ (+++ = MIC ≦ 4)"}, {"measurement": "Minimum Inhibitory Concentration (MIC)", "setting": "S. aureus ATCC 27660", "value": "+++ (+++ = MIC ≦ 4)"}, {"measurement": "Minimum Inhibitory Concentration (MIC)", "setting": "B. cereus ATCC 11778", "value": "+++ (+++ = MIC ≦ 4)"}, {"measurement": "Minimum Inhibitory Concentration (MIC)", "setting": "[1]", "value": "++ (++ = 4 < MIC < 12)"}, {"measurement": "Minimum Inhibitory Concentration (MIC)", "setting": "E. faecium ATCC 51559", "value": "++ (++ = 4 < MIC < 12)"}]}, {"molecule": "Cn1cc(NC(=O)c2cc(NC(=O)c3cc(NC(=O)c4cc5ccccc5cn4)cn3C)c[nH]2)cc1C(=O)NCCN1CCCCC1", "note": "[Ib-86]", "values": [{"measurement": "Minimum Inhibitory Concentration (MIC)", "setting": "S. aureus ATCC 13709", "value": "+++ (+++ = MIC ≦ 4)"}, {"measurement": "Minimum Inhibitory Concentration (MIC)", "setting": "C. albicans ATCC 38247", "value": "++ (++ = 4 < MIC < 12)"}, {"measurement": "Minimum Inhibitory Concentration (MIC)", "setting": "S. pneumoniae ATCC 51422", "value": "+++ (+++ = MIC ≦ 4)"}, {"measurement": "Minimum Inhibitory Concentration (MIC)", "setting": "E. faecalis ATCC 29212", "value": "+++ (+++ = MIC ≦ 4)"}, {"measurement": "Minimum Inhibitory Concentration (MIC)", "setting": "S. pneumoniae ATCC 49619", "value": "+++ (+++ = MIC ≦ 4)"}, {"measurement": "Minimum Inhibitory Concentration (MIC)", "setting": "S. aureus ATCC 27660", "value": "+++ (+++ = MIC ≦ 4)"}, {"measurement": "Minimum Inhibitory Concentration (MIC)", "setting": "B. cereus ATCC 11778", "value": "+++ (+++ = MIC ≦ 4)"}, {"measurement": "Minimum Inhibitory Concentration (MIC)", "setting": "[1]", "value": "+++ (+++ = MIC ≦ 4)"}, {"measurement": "Minimum Inhibitory Concentration (MIC)", "setting": "E. faecium ATCC 51559", "value": "+++ (+++ = MIC ≦ 4)"}]}, {"molecule": "Cn1cc(NC(=O)c2ccc(NC(=O)c3cc(NC(=O)c4cc5ccccc5cn4)cn3C)cc2)cc1C(=O)NCCN1CCC(F)CC1", "note": "[Ic-3]", "values": [{"measurement": "Minimum Inhibitory Concentration (MIC)", "setting": "S. aureus ATCC 13709", "value": "+++ (+++ = MIC ≦ 4)"}, {"measurement": "Minimum Inhibitory Concentration (MIC)", "setting": "C. albicans ATCC 38247", "value": ">32", "unit": "µg/mL"}, {"measurement": "Minimum Inhibitory Concentration (MIC)", "setting": "S. pneumoniae ATCC 51422", "value": "+++ (+++ = MIC ≦ 4)"}, {"measurement": "Minimum Inhibitory Concentration (MIC)", "setting": "E. faecalis ATCC 29212", "value": "+++ (+++ = MIC ≦ 4)"}, {"measurement": "Minimum Inhibitory Concentration (MIC)", "setting": "S. pneumoniae ATCC 49619", "value": "+++ (+++ = MIC ≦ 4)"}, {"measurement": "Minimum Inhibitory Concentration (MIC)", "setting": "S. aureus ATCC 27660", "value": "+++ (+++ = MIC ≦ 4)"}, {"measurement": "Minimum Inhibitory Concentration (MIC)", "setting": "B. cereus ATCC 11778", "value": "+++ (+++ = MIC ≦ 4)"}, {"measurement": "Minimum Inhibitory Concentration (MIC)", "setting": "[1]", "value": "+++ (+++ = MIC ≦ 4)"}, {"measurement": "Minimum Inhibitory Concentration (MIC)", "setting": "E. faecium ATCC 51559", "value": "+++ (+++ = MIC ≦ 4)"}]}, {"molecule": "COCCOCCOCCn1cc(NC(=O)c2cc(NC(=O)c3cc4ccccc4cn3)cn2C)cc1C(=O)Nc1cc(C(=O)NCCN2CCOCC2)n(C)c1", "note": "[Ib-83]", "values": [{"measurement": "Minimum Inhibitory Concentration (MIC)", "setting": "S. aureus ATCC 13709", "value": "+++ (+++ = MIC ≦ 4)"}, {"measurement": "Minimum Inhibitory Concentration (MIC)", "setting": "C. albicans ATCC 38247", "value": ">32", "unit": "µg/mL"}, {"measurement": "Minimum Inhibitory Concentration (MIC)", "setting": "S. pneumoniae ATCC 51422", "value": "+++ (+++ = MIC ≦ 4)"}, {"measurement": "Minimum Inhibitory Concentration (MIC)", "setting": "E. faecalis ATCC 29212", "value": "+++ (+++ = MIC ≦ 4)"}, {"measurement": "Minimum Inhibitory Concentration (MIC)", "setting": "S. pneumoniae ATCC 49619", "value": "+++ (+++ = MIC ≦ 4)"}, {"measurement": "Minimum Inhibitory Concentration (MIC)", "setting": "S. aureus ATCC 27660", "value": "+++ (+++ = MIC ≦ 4)"}, {"measurement": "Minimum Inhibitory Concentration (MIC)", "setting": "B. cereus ATCC 11778", "value": "+++ (+++ = MIC ≦ 4)"}, {"measurement": "Minimum Inhibitory Concentration (MIC)", "setting": "[1]", "value": "+++ (+++ = MIC ≦ 4)"}, {"measurement": "Minimum Inhibitory Concentration (MIC)", "setting": "E. faecium ATCC 51559", "value": "+++ (+++ = MIC ≦ 4)"}]}]}
